Test results: US6355799B1, “Substituted benzene compounds, process for their preparation, and herbicidal and defoliant compositions containing them” (ISK Americas Incorporated, priority 1997, dated 2002)

What was measured:
Type in all cases: in vivo
[1] = tested on: redroot pigweed (Amaranthus retroflexus, AMARE); assay: Pre-emerge test, greenhouse herbicide activity screening; conditions: pre-emerge, phytotoxicity rating 0-100 at 14 days after application
Procedure, shortened: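 Compounds in acetone were track-sprayed at 187 l/ha, 15–1000 g ai/ha, onto sandy loam pots. Pre-emerge seeds were sown one day before spraying, with surface watering afterwards. Post-emerge plants were at the 2–3 leaf stage and sprayed with 0.25% v/v non-ionic surfactant. Injury was rated 0–100 at 14 days.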

[2] = tested on: johnsongrass (Sorghum halepense, SORHA); assay: as above; conditions: pre-emerge, phytotoxicity rating 0-100 at 14 days after application
Procedure, shortened: (§1)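 Herbicidal damage is scored 0 (none) to 100 (complete plant death) two weeks after a simulated field spray. Rates span 15–1000 g ai/ha, delivered in acetone at 187 l/ha. For post-emergence treatments, plants have 2–3 leaves and the spray carries 0.25% v/v non-ionic surfactant.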

[3] = tested on: sicklepod (Cassia obtusifolia, CASOB); assay: as above; conditions: pre-emerge, phytotoxicity rating 0-100 at 14 days after application
Procedure, shortened: as §1

[4] = tested on: green foxtail (Setaria viridis, SETVI); assay: as above; conditions: pre-emerge, phytotoxicity rating 0-100 at 14 days after application
Procedure, shortened: as §1

[5] = tested on: barnyardgrass (Echinochloa crus-galli, ECHCG); assay: as above; conditions: pre-emerge, phytotoxicity rating 0-100 at 14 days after application
Procedure, shortened: as §1

[6] = tested on: ivyleaf morningglory (Ipomoea hederacea, IPOHE); assay: as above; conditions: pre-emerge, phytotoxicity rating 0-100 at 14 days after application
Procedure, shortened: as §1

[7] = tested on: velvetleaf (Abutilon theophrasti, ABUTH); assay: as above; conditions: pre-emerge, phytotoxicity rating 0-100 at 14 days after application
Procedure, shortened: as §1

[8] = tested on: large crabgrass (Digitaria sanguinalis, DIGSA); assay: as above; conditions: pre-emerge, phytotoxicity rating 0-100 at 14 days after application
Procedure, shortened: as §1

[9] = tested on: lambsquarters (Chenopodium album, CHEAL); assay: as above; conditions: pre-emerge, phytotoxicity rating 0-100 at 14 days after application
Procedure, shortened: as §1

[10] = tested on: johnsongrass (Sorghum halepense, SORHA); assay: Post-emerge test, greenhouse herbicide activity screening; conditions: post-emerge, phytotoxicity rating 0-100 at 14 days after application
Procedure, shortened: (§2)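 Visual ratings on a 0-100 scale (0 no damage, 100 all plants dead) were taken at 14 days after treatment. Rates of 15-1000 g ai/ha in acetone, 187 l/ha, were sprayed onto soil one day after planting (pre-emerge) or onto 2-3 leaf plants with 0.25% v/v surfactant (post-emerge).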

[11] = tested on: sicklepod (Cassia obtusifolia, CASOB); assay: as above; conditions: post-emerge, phytotoxicity rating 0-100 at 14 days after application
Procedure, shortened: as §2

[12] = tested on: green foxtail (Setaria viridis, SETVI); assay: as above; conditions: post-emerge, phytotoxicity rating 0-100 at 14 days after application
Procedure, shortened: as §2

[13] = tested on: barnyardgrass (Echinochloa crus-galli, ECHCG); assay: as above; conditions: post-emerge, phytotoxicity rating 0-100 at 14 days after application
Procedure, shortened: as §2

[14] = tested on: ivyleaf morningglory (Ipomoea hederacea, IPOHE); assay: as above; conditions: post-emerge, phytotoxicity rating 0-100 at 14 days after application
Procedure, shortened: as §2

[15] = tested on: velvetleaf (Abutilon theophrasti, ABUTH); assay: as above; conditions: post-emerge, phytotoxicity rating 0-100 at 14 days after application
Procedure, shortened: as §2

[16] = tested on: large crabgrass (Digitaria sanguinalis, DIGSA); assay: as above; conditions: post-emerge, phytotoxicity rating 0-100 at 14 days after application
Procedure, shortened: as §2

[17] = tested on: redroot pigweed (Amaranthus retroflexus, AMARE); assay: as above; conditions: post-emerge, phytotoxicity rating 0-100 at 14 days after application
Procedure, shortened: as §2

[18] = tested on: lambsquarters (Chenopodium album, CHEAL); assay: as above; conditions: post-emerge, phytotoxicity rating 0-100 at 14 days after application
Procedure, shortened: as §2

[19] = tested on: field corn (Zea mays L., var. Dekalb 535, CORN); assay: Pre-emerge test, crop safety; conditions: crop damage, pre-emerge, phytotoxicity rating 0-100 at 14 days after application
Procedure, shortened: (§3)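 Rating: 0–100 visual injury, 14 DAA. Application: acetone, 187 l/ha, 15–1000 g ai/ha, flat-fan track sprayer with nozzle 40–45 cm above soil or canopy. Post-emerge runs used 0.25% v/v surfactant on 2–3 leaf plants.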

[20] = tested on: upland rice (Oryza sp., var. Tebonnet, RICE); assay: Pre-emerge test, crop safety; conditions: crop damage, pre-emerge, phytotoxicity rating 0-100 at 14 days after application
Procedure, shortened: as §3

[21] = tested on: field corn (Zea mays L., var. Dekalb 535, CORN); assay: Post-emerge test, crop safety; conditions: post-emerge, crop damage rating 0-100 at 14 days after application
Procedure, shortened: as §1

[22] = tested on: upland rice (Oryza sp., var. Tebonnet, RICE); assay: Post-emerge test, crop safety; conditions: post-emerge, crop damage rating 0-100 at 14 days after application
Procedure, shortened: as §1

For `Cc1c(Cl)cc(F)c(-n2c(=O)cc(C(F)(F)F)n(C)c2=O)c1NC(=O)OCc1ccc(Cl)cc1Cl` [4-62], the “Pre-emerge Herbicidal Activity AMARE” value ([1]; rate 63 g ai/ha) was 100, the “Pre-emerge Herbicidal Activity AMARE” value ([1]; rate 250 g ai/ha) was 100 and the “Pre-emerge Herbicidal Activity SORHA” value ([2]; rate 63 g ai/ha) was 10. The “Pre-emerge Herbicidal Activity SORHA” value ([2]; rate 250 g ai/ha) was 50, the “Pre-emerge Herbicidal Activity CASOB” value ([3]; rate 63 g ai/ha) was 50 and the “Pre-emerge Herbicidal Activity CASOB” value ([3]; rate 250 g ai/ha) was 100. The “Pre-emerge Herbicidal Activity SETVI” value ([4]; rate 63 g ai/ha) was 80, the “Pre-emerge Herbicidal Activity SETVI” value ([4]; rate 250 g ai/ha) was 100 and the “Pre-emerge Herbicidal Activity ECHCG” value ([5]; rate 63 g ai/ha) was 10. For the same compound, the “Pre-emerge Herbicidal Activity ECHCG” value ([5]; rate 250 g ai/ha) was 60, the “Pre-emerge Herbicidal Activity IPOHE” value ([6]; rate 63 g ai/ha) was 60 and the “Pre-emerge Herbicidal Activity IPOHE” value ([6]; rate 250 g ai/ha) was 30. The “Pre-emerge Herbicidal Activity ABUTH” value ([7]; rate 63 g ai/ha) was 100, the “Pre-emerge Herbicidal Activity ABUTH” value ([7]; rate 250 g ai/ha) was 100 and the “Pre-emerge Herbicidal Activity DIGSA” value ([8]; rate 63 g ai/ha) was 50. For the same compound, the “Pre-emerge Herbicidal Activity DIGSA” value ([8]; rate 250 g ai/ha) was 90, the “Pre-emerge Herbicidal Activity CHEAL” value ([9]; rate 63 g ai/ha) was 100 and the “Pre-emerge Herbicidal Activity CHEAL” value ([9]; rate 250 g ai/ha) was 100. For the same compound, the “Post-emerge Herbicidal Activity SORHA” value ([10]; 63 g ai/ha) was 30, the “Post-emerge Herbicidal Activity SORHA” value ([10]; 250 g ai/ha) was 30 and the “Post-emerge Herbicidal Activity CASOB” value ([11]; 63 g ai/ha) was 90. For the same compound, the “Post-emerge Herbicidal Activity CASOB” value ([11]; 250 g ai/ha) was 100, the “Post-emerge Herbicidal Activity SETVI” value ([12]; 63 g ai/ha) was 60 and the “Post-emerge Herbicidal Activity SETVI” value ([12]; 250 g ai/ha) was 80. The “Post-emerge Herbicidal Activity ECHCG” value ([13]; 63 g ai/ha) was 20, the “Post-emerge Herbicidal Activity ECHCG” value ([13]; 250 g ai/ha) was 40 and the “Post-emerge Herbicidal Activity IPOHE” value ([14]; 63 g ai/ha) was 100. The “Post-emerge Herbicidal Activity IPOHE” value ([14]; 250 g ai/ha) was 100, the “Post-emerge Herbicidal Activity ABUTH” value ([15]; 63 g ai/ha) was 100 and the “Post-emerge Herbicidal Activity ABUTH” value ([15]; 250 g ai/ha) was 100. For the same compound, the “Post-emerge Herbicidal Activity DIGSA” value ([16]; 63 g ai/ha) was 10, the “Post-emerge Herbicidal Activity DIGSA” value ([16]; 250 g ai/ha) was 50 and the “Post-emerge Herbicidal Activity AMARE” value ([17]; 63 g ai/ha) was 100. For the same compound, the “Post-emerge Herbicidal Activity AMARE” value ([17]; 250 g ai/ha) was 100, the “Post-emerge Herbicidal Activity CHEAL” value ([18]; 63 g ai/ha) was 100 and the “Post-emerge Herbicidal Activity CHEAL” value ([18]; 250 g ai/ha) was 100. The “Pre-emerge Herbicidal Activity CORN” value ([19]; rate 63 g ai/ha) was 0, the “Pre-emerge Herbicidal Activity CORN” value ([19]; rate 250 g ai/ha) was 10 and the “Pre-emerge Herbicidal Activity RICE” value ([20]; rate 63 g ai/ha) was 10. The “Pre-emerge Herbicidal Activity RICE” value ([20]; rate 250 g ai/ha) was 70, the “Post-emerge Herbicidal Activity CORN” value ([21]; 63 g ai/ha) was 30 and the “Post-emerge Herbicidal Activity CORN” value ([21]; 250 g ai/ha) was 45. The “Post-emerge Herbicidal Activity RICE” value ([22]; 63 g ai/ha) was 30 and the “Post-emerge Herbicidal Activity RICE” value ([22]; 250 g ai/ha) was 30.

With `COc1ccc(COC(=O)Nc2c(C)c(Cl)cc(F)c2-n2c(=O)cc(C(F)(F)F)n(C)c2=O)cc1OC` [4-63] the “Pre-emerge Herbicidal Activity AMARE” value ([1]; rate 63 g ai/ha) was 100, the “Pre-emerge Herbicidal Activity AMARE” value ([1]; rate 250 g ai/ha) was 100 and the “Pre-emerge Herbicidal Activity SORHA” value ([2]; rate 63 g ai/ha) was 30. For the same compound, the “Pre-emerge Herbicidal Activity SORHA” value ([2]; rate 250 g ai/ha) was 50, the “Pre-emerge Herbicidal Activity CASOB” value ([3]; rate 63 g ai/ha) was 40 and the “Pre-emerge Herbicidal Activity CASOB” value ([3]; rate 250 g ai/ha) was 100. The “Pre-emerge Herbicidal Activity SETVI” value ([4]; rate 63 g ai/ha) was 70, the “Pre-emerge Herbicidal Activity SETVI” value ([4]; rate 250 g ai/ha) was 100 and the “Pre-emerge Herbicidal Activity ECHCG” value ([5]; rate 63 g ai/ha) was 30. For the same compound, the “Pre-emerge Herbicidal Activity ECHCG” value ([5]; rate 250 g ai/ha) was 70, the “Pre-emerge Herbicidal Activity IPOHE” value ([6]; rate 63 g ai/ha) was 40 and the “Pre-emerge Herbicidal Activity IPOHE” value ([6]; rate 250 g ai/ha) was 100. The “Pre-emerge Herbicidal Activity ABUTH” value ([7]; rate 63 g ai/ha) was 100, the “Pre-emerge Herbicidal Activity ABUTH” value ([7]; rate 250 g ai/ha) was 100 and the “Pre-emerge Herbicidal Activity DIGSA” value ([8]; rate 63 g ai/ha) was 70. For the same compound, the “Pre-emerge Herbicidal Activity DIGSA” value ([8]; rate 250 g ai/ha) was 95, the “Pre-emerge Herbicidal Activity CHEAL” value ([9]; rate 63 g ai/ha) was 100 and the “Pre-emerge Herbicidal Activity CHEAL” value ([9]; rate 250 g ai/ha) was 100. The “Post-emerge Herbicidal Activity SORHA” value ([10]; 63 g ai/ha) was 0, the “Post-emerge Herbicidal Activity SORHA” value ([10]; 250 g ai/ha) was 10 and the “Post-emerge Herbicidal Activity CASOB” value ([11]; 63 g ai/ha) was 60. For the same compound, the “Post-emerge Herbicidal Activity CASOB” value ([11]; 250 g ai/ha) was 100, the “Post-emerge Herbicidal Activity SETVI” value ([12]; 63 g ai/ha) was 0 and the “Post-emerge Herbicidal Activity SETVI” value ([12]; 250 g ai/ha) was 30. The “Post-emerge Herbicidal Activity ECHCG” value ([13]; 63 g ai/ha) was 0, the “Post-emerge Herbicidal Activity ECHCG” value ([13]; 250 g ai/ha) was 20 and the “Post-emerge Herbicidal Activity IPOHE” value ([14]; 63 g ai/ha) was 100. The “Post-emerge Herbicidal Activity IPOHE” value ([14]; 250 g ai/ha) was 100, the “Post-emerge Herbicidal Activity ABUTH” value ([15]; 63 g ai/ha) was 100 and the “Post-emerge Herbicidal Activity ABUTH” value ([15]; 250 g ai/ha) was 100. The “Post-emerge Herbicidal Activity DIGSA” value ([16]; 63 g ai/ha) was 0, the “Post-emerge Herbicidal Activity DIGSA” value ([16]; 250 g ai/ha) was 10 and the “Post-emerge Herbicidal Activity AMARE” value ([17]; 63 g ai/ha) was 100. The “Post-emerge Herbicidal Activity AMARE” value ([17]; 250 g ai/ha) was 100, the “Post-emerge Herbicidal Activity CHEAL” value ([18]; 63 g ai/ha) was 80 and the “Post-emerge Herbicidal Activity CHEAL” value ([18]; 250 g ai/ha) was 100. For the same compound, the “Pre-emerge Herbicidal Activity CORN” value ([19]; rate 63 g ai/ha) was 0, the “Pre-emerge Herbicidal Activity CORN” value ([19]; rate 250 g ai/ha) was 35 and the “Pre-emerge Herbicidal Activity RICE” value ([20]; rate 63 g ai/ha) was 40. The “Pre-emerge Herbicidal Activity RICE” value ([20]; rate 250 g ai/ha) was 90, the “Post-emerge Herbicidal Activity CORN” value ([21]; 63 g ai/ha) was 10 and the “Post-emerge Herbicidal Activity CORN” value ([21]; 250 g ai/ha) was 30. For the same compound, the “Post-emerge Herbicidal Activity RICE” value ([22]; 63 g ai/ha) was 10 and the “Post-emerge Herbicidal Activity RICE” value ([22]; 250 g ai/ha) was 60.
